Source: patent EP0107214A2, “Pharmaceutical compositions containing benzoyl-phenyl ureas with anti-tumour activity” (DUPHAR INTERNATIONAL RESEARCH B.V, priority 1982, dated 1984)
“And” between values parts separate entries of the source, which are not always exact repeats. Equal values may be shown once. Read-outs that look alike come from different tables or passages of the source.

Columns and labels:
B-16 malignant melanoma = B-16 malignant melanoma in C57BL/6 mice, tumor growth after intraperitoneal injection; format: in vivo
Protocol: (§1) The compounds were tested by intraperitoneal injections of suspensions of the compounds in an aqueous solution of polyvinyl pyrrolidone.
Mice with malignant melanomas were injected with 20 mg or 40 mg diflubenzuron in suspension or with the suspension medium (blank).
Finally compound 2) was given in doses of 20 mg each on days 0, 1 and 2.
Animals with growing tumors were treated with 100 mg of diflubenzuron alone (suspended in an aqueous solution of polyvinylpyrrolidone) or in combination with a metabolic inhibitor or a metabolic inducer according to the schedule given in Table XI.

Skin carcinoma (Ca 1025) = Skin carcinoma (Ca 1025) in AKR mice, tumor growth after intraperitoneal injection; format: in vivo; settings: single injection 20 mg
Protocol: (§2) Ridgeway Osteogenic Sarcoma (ROS) in AKR mice. The advantage of the use of such a localized, non-metastatic tumor for studies on drug effects is that pertuba- tions of tumor growth and longevity of the mice are attributable to a direct effect on the primary tumor. • III. Skin carcinoma (Ca 1025) in AKR mice. This tumor represents a second histologic cell type arising from skin and is less malignant than malignant melanoma.
as §1
The compound PH 60-44 was also tested in this model.

melanoma B-16 cells = experiment: Malignant melanoma B-16 cells in vitro, cell count by Coulter Counter; format: cell-based; settings: Mus musculus; for activity at 50 µg/mL: B16, 48 h, 50 ug/ml
Protocol: Cells of malignant melanomas B-16 grow as a monolayer. The doubling time of this type of cells in a cell--culture is 12 to 16 hours. For this experiment 6 multi-well tissue culture plates having a flat bottom with a surface area of 6 cm^2 appeared to be suitable and have been used.
On day 0 a quantity of melanoma B-16 cells were brought on the cell-culture plates.
The test compounds were sonicated and then incubated without cells for 3 hours at 37°C.
Then the compound to be tested was administered to the plates with melanoma B-16 cells in the desired quantity (each test was done in triplicate). Thereafter the plates were incubated in a C02-incubator for 20 hours at 37°C. Then the incubation was stopped by removing the culture medium containing the test compound, the cells were washed twice, and fresh culture medium was added.
48 Hours after starting the incubation step the number of cells on each plate was measured by means of a microcell Coulter Counter. The results so obtained have been expressed as "percentage of controll cell growth".
In the above experiment the compounds to be tested have been used in the form of a suspension. Since it is not quite clear how much of the active compounds is dissolved, the above results cannot be compared very well.
Therefore a number of compounds has been dissolved in ethanol.

[1] = test system: Ridgeway Osteogenic Sarcoma (ROS); experiment: Ridgeway Osteogenic Sarcoma (ROS) in AKR mice, tumor growth after intraperitoneal injection; format: in vivo
Protocol: as §2, §1
Doses of diflubenzuron of 20 mg on day 0 (Table VI), 20 mg each on days 0 and 3; and 20 mg each on days 0, 1, 2, 5 and 6 (Table VII) were used in this test model. […]

[2] = 100 mg (20 mg days 0-4) after 2.4 mg cobaltous chloride (1.2 mg on days -2 and -1)
[3] = 100 mg (20 mg days 0-4) after 4 mg phenobarbital (1 mg on days -4 to -1)
[4] = 100 mg (20 mg days 0-4) after 6.4 mg 3-methylcholanthrene (1.6 mg on days -4 to -1)
[5] = 100 mg total, 20 mg each on day 0, 1, 2, 3 and 4
[6] = 2 x 20 mg, on day 0 and day 2 or 4
[7] = single injection 40 mg, i.p. suspension
[8] = 5 x 20 mg, days 0, 1, 2, 5 and 6

O=C(NC(=O)c1c(F)cccc1F)Nc1ccc(Cl)cc1 [Compound 1, 1-(2,6-difluorobenzoyl)-3-(4-chlorophenyl)urea]
% change in tumor mass day 1 (B-16 malignant melanoma; [2]): 14.4 (16) %
% change in tumor mass day 2 (B-16 malignant melanoma; [2]): 20.9 (12) %
% change in tumor mass day 3 (B-16 malignant melanoma; [2]): 36.4 (12) %
% change in tumor mass day 4 (B-16 malignant melanoma; [2]): 39.3 (12) %
% change in tumor mass day 5 (B-16 malignant melanoma; [2]): 59.7 (12) %
% change in tumor mass day 10 (B-16 malignant melanoma; [2]): 306 (12) %
% change in tumor mass day 14 (B-16 malignant melanoma; [2]): 782 (9) %
% change in tumor mass day 1 (B-16 malignant melanoma; [3]): -19.4 (23) %
% change in tumor mass day 2 (B-16 malignant melanoma; [3]): -10.4 (23) %
% change in tumor mass day 3 (B-16 malignant melanoma; [3]): 0.8 (23) %
% change in tumor mass day 4 (B-16 malignant melanoma; [3]): 21.7 (23) %
% change in tumor mass day 5 (B-16 malignant melanoma; [3]): 72.1 (23) %
% change in tumor mass day 10 (B-16 malignant melanoma; [3]): 293 (23) %
% change in tumor mass day 14 (B-16 malignant melanoma; [3]): 572 (10) %
% change in tumor mass day 1 (B-16 malignant melanoma; [4]): -29.2 (34) %
% change in tumor mass day 2 (B-16 malignant melanoma; [4]): -23.5 (34) %
% change in tumor mass day 3 (B-16 malignant melanoma; [4]): -20.6 (32) %
% change in tumor mass day 4 (B-16 malignant melanoma; [4]): -15.1 (29) %
% change in tumor mass day 5 (B-16 malignant melanoma; [4]): 5.7 (21) %
% change in tumor mass day 10 (B-16 malignant melanoma; [5]): 266 (17) %
% change in tumor mass day 14 (B-16 malignant melanoma; [5]): 378 (12) %
% change in tumor mass on day 11 (B-16 malignant melanoma; [5]): 891 (12) %
% change in tumor mass day 2 (B-16 malignant melanoma; 100 mg total, 20 mg each on day 0, 1, 2, 3 and 4, listed as diflubenzuron): -8.6 (17) % and -12.5 (22) % and -7.2 (12) %
% change in tumor mass day 1 (B-16 malignant melanoma; [6]): -11.7 (26) %
% change in tumor mass day 2 (B-16 malignant melanoma; [6]): 18.6 (26) %
% change in tumor mass day 3 (B-16 malignant melanoma; [6]): 92.6 (16) %
% change in tumor mass day 4 (B-16 malignant melanoma; [6]): 143 (26) %
% change in tumor mass day 5 (B-16 malignant melanoma; [6]): 178 (10) %
% change in tumor mass day 6 (B-16 malignant melanoma; [6]): 264 (26) %
% change in tumor mass day 15 (B-16 malignant melanoma; [6]): 1187 (16) %
reduction in tumor size within 24 hours of treatment (B-16 malignant melanoma; initial injection of 20 mg, two experiments, listed as diflubenzuron): 11.7% and 13.4%
initial decrease (tumor size) (B-16 malignant melanoma; injection of 40 mg): 22%
% change in tumor mass day 2 (B-16 malignant melanoma; single injection 20 mg, i.p. suspension): 18.6(26) %
% change in tumor mass day 1 (B-16 malignant melanoma; single injection 20 mg, i.p. suspension, listed as diflubenzuron): -11.7(26) % and -13.4(22) %
initial doubling time (in days) 0-2 days (B-16 malignant melanoma; single injection 20 mg, calculated from change within 48 hours after treatment, listed as diflubenzuron): 10.4 days and 10.4(26) days
% change in tumor mass day 1 (B-16 malignant melanoma; [7]): -22.4(8) %
% change in tumor mass day 2 (B-16 malignant melanoma; [7]): -14.7(8) %
initial doubling time (in days) 0-2 days (B-16 malignant melanoma; single injection 40 mg, negative = time for decrease to one-half size): -6.7(8) days
% change in tumor mass day 1 (Skin carcinoma (Ca 1025)): -3.8 (35) %
% change in tumor mass day 2 (Skin carcinoma (Ca 1025)): 19.9 (7) %
activity at 50 µg/mL (melanoma B-16 cells; dissolved in ethanol, read-out: Percentage of controll cell growth (solution)): 48%
activity at 50 µg/mL (melanoma B-16 cells; suspension, read-out: Percentage of controll cell growth (suspension)): 79%
activity at 500 µg/mL (melanoma B-16 cells; B16, suspension, 20 hours incubation, cells counted at 48 hours, read-out: Percentage of controll cell growth when tested in an amount of 5 x 10^2 µg/ml): 78%
activity at 5000 µg/mL (melanoma B-16 cells; B16, suspension, 20 hours incubation, cells counted at 48 hours, read-out: Percentage of controll cell growth when tested in an amount of 5 x 10^3 µg/ml): 41%
% change in tumor mass day 1 ([1]; 20 mg on day 0): 14.4 (29) %
% change in tumor mass day 2 ([1]; 20 mg on day 0): 48.5 (19) %
% change in tumor mass day 1 ([1]; 2 x 20 mg, days 0 and 3): 32.0 (10) %
% change in tumor mass day 3 ([1]; 2 x 20 mg, days 0 and 3): 104 (10) %
% change in tumor mass day 4 ([1]; 2 x 20 mg, days 0 and 3): 213 (10) %
% change in tumor mass day 5 ([1]; 2 x 20 mg, days 0 and 3): 298 (10) %
% change in tumor mass day 7 ([1]; 2 x 20 mg, days 0 and 3): 511 (10) %
% change in tumor mass day 14 ([1]; 2 x 20 mg, days 0 and 3): 1682 (10) %
% change in tumor mass day 21 ([1]; 2 x 20 mg, days 0 and 3): 4051 (10) %
% change in tumor mass day 1 [1, 8]: 12.2 (10) %
% change in tumor mass day 2 [1, 8]: 43.3 (10) %
% change in tumor mass day 5 [1, 8]: 285 (10) %
% change in tumor mass day 7 [1, 8]: 423 (10) %
% change in tumor mass day 14 [1, 8]: 2495 (10) %
% change in tumor mass day 21 [1, 8]: 8880 (8) %
